# Experimental data as given in patent US11931343B2 (ARCUS BIOSCIENCES, INC., priority 2018, dated 2024).
# Target: T1, human CD73 (Homo sapiens, UniProt P21589)
# T1 sequence (P21589 27-549): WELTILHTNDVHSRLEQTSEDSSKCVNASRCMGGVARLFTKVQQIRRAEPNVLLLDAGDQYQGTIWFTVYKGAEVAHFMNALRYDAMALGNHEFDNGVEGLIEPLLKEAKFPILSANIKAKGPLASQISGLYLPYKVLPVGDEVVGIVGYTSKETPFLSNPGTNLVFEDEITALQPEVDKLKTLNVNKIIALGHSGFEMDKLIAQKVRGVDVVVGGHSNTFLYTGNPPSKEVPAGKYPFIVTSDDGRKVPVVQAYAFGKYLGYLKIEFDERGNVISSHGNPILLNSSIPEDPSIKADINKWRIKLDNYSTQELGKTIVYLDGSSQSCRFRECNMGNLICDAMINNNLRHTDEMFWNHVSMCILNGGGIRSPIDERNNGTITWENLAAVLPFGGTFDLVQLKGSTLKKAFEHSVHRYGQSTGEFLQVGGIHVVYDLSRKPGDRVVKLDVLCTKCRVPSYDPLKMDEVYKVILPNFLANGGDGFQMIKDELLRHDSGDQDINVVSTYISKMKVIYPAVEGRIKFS
# Assay: Inhibition of Ecto-5′-nucleotidase (CD73) activity in CHO-CD73 cells, phosphate release from AMP
# Format: cell-based
# Conditions: CHO-K1 cells stably transfected with human CD73; 25 μM AMP; 50 minutes, 37° C.; read-out: Potency: CD73 IC50
row,SMILES,IC50 [nM]
1,Fc1cc(-c2ccnn2Cc2ccc(Cl)cn2)cc2c1cnn2-c1ccc2cn[nH]c2c1 [Example 133],> 1000
2,Fc1cc2nnn(-c3ccc4cn[nH]c4c3)c2cc1-c1ccnn1Cc1ccccc1 [Example 136],> 1000
3,Fc1cc(-c2ccnn2Cc2ccccc2)cc2c1nnn2-c1cnc2cn[nH]c2c1 [Example 137],> 1000
4,Fc1cc(-c2ccnn2Cc2ccccc2)cc2c1nnn2-c1cc2[nH]ncc2cn1 [Example 138],> 1000
5,O=C1CCC(c2cc(F)c3nnn(-c4ccc5cn[nH]c5c4)c3c2)N1Cc1ccc(Cl)cc1Cl (stereo not shown) [Example 143],> 1000
6,N#Cc1ccc(Cn2nccc2-c2cc(Cl)c3nnn(-c4ccnc(N)c4)c3c2)nc1 [Example 145],> 1000
7,N#Cc1ccc(Cn2nccc2-c2cc3c(cn2)ncn3-c2ccc3cn[nH]c3c2)cc1 [Example 146],> 1000
8,N#Cc1ccc(Cn2nccc2-c2cc3c(cn2)cnn3-c2ccc3cn[nH]c3c2)cc1 [Example 147],> 1000
9,Clc1ccc(Cn2nccc2-c2cc3c(cn2)cnn3-c2ccc3cn[nH]c3c2)nc1 [Example 149],> 1000
10,N#Cc1ccc(Cn2nccc2-c2cnc3cnn(-c4ccc5cn[nH]c5c4)c3c2)cc1 [Example 152],> 1000
11,O=c1[nH]c2ccc(-n3ncc4cnc(-c5ccnn5Cc5ccc(Cl)cn5)cc43)cc2[nH]1 [Example 153],> 1000
12,N#Cc1ccc(Cn2nccc2-c2cc(F)c3nnn(-c4ccc5c(c4)NC(=O)C5)c3c2)cc1 [Example 156],> 1000
13,O=c1[nH]c2cc(-n3nnc4c(F)cc(-c5ccnn5Cc5ccc(Cl)cc5Cl)cc43)ccc2o1 [Example 159],> 1000
14,Nc1cc(-n2nnc3c(F)cc(-c4ccnn4Cc4ccc(Cl)cn4)cc32)ccc1O [Example 160],> 1000
15,O=c1[nH]c2cc(-n3nnc4c(F)cc(-c5ccnn5Cc5ccc(Cl)cn5)cc43)ccc2o1 [Example 161],> 1000
16,Nc1cccc(-n2nnc3c(Cl)cc(-c4ccnn4Cc4ccc(Cl)cc4Cl)cc32)c1 [Example 162],> 1000
17,N#Cc1ccc(Cn2nccc2-c2cc(F)c3nnn(-c4ccc5oc(=O)[nH]c5c4)c3c2)cc1 [Example 166],> 1000
18,Fc1ccc(Cn2nccc2-c2cc(F)c3nnn(-c4ccc5nc[nH]c5c4)c3c2)nc1 [Example 172],> 1000
19,O=c1[nH]c2ccc(-n3nnc4c(F)cc(-c5ccnn5Cc5ccc(F)cn5)cc43)cc2[nH]1 [Example 174],> 1000
20,N#Cc1ccc(Cn2nccc2-c2cc(F)c3c(N)nn(-c4ccc5[nH]c(=O)[nH]c5c4)c3c2)cc1 [Example 175],> 1000
21,Fc1cc(-c2ccnn2Cc2ccc(-c3ncco3)cc2)cc2c1nnn2-c1ccc2cn[nH]c2c1 [Example 177],> 1000
22,N#Cc1ccc(Cn2nccc2-c2cnc3cnn(-c4ccc5cn[nH]c5c4)c3c2)nc1 [Example 179],> 1000
23,N#Cc1ccc(Cn2nccc2-c2cnc3cnn(-c4ccc5[nH]c(=O)[nH]c5c4)c3c2)cc1 [Example 180],> 1000
24,Fc1ccc(Cn2nccc2-c2cnc3cnn(-c4ccc5cn[nH]c5c4)c3c2)nc1 [Example 181],> 1000
25,CC(O)c1ccc(Cn2nccc2-c2cc(F)c3nnn(-c4ccc5[nH]c(=O)[nH]c5c4)c3c2)cc1 (stereo not shown) [Example 182],> 1000
26,CC(C)(O)c1ccc(Cn2nccc2-c2cc(F)c3nnn(-c4ccc5[nH]c(=O)[nH]c5c4)c3c2)cc1 [Example 183],> 1000
27,O=C(Cn1nccc1-c1cc(Cl)c2nnn(-c3ccc4cn[nH]c4c3)c2c1)N1CCCCC1 [Example 184],> 1000
28,CC(NC(=O)Cn1nccc1-c1cc(Cl)c2nnn(-c3ccc4cn[nH]c4c3)c2c1)c1ccccc1 (stereo not shown) [Example 185],> 1000

# Other lines, results leading:
row,IC50 [nM],SMILES
1,< 100,Clc1ccc(Cn2nccc2-c2ccn3nnc(-c4ccc5cn[nH]c5c4)c3c2)c(Cl)c1 [Example 126]
2,> 1000,O=C(O)c1n[nH]c2cc(-n3nnc4c(Cl)cc(-c5ccnn5Cc5ccc(Cl)cc5Cl)cc43)ccc12 [Example 127]
3,100 to 1000,c1ccc(Cn2nccc2-c2cc3c(cn2)nnn3-c2ccc3cn[nH]c3c2)cc1 [Example 128]
4,100 to 1000,N#Cc1ccc(Cn2nccc2-c2cnc3nnn(-c4ccc5cn[nH]c5c4)c3c2)cc1 [Example 129]
5,> 1000,Fc1c(-c2ccnn2Cc2ccccc2)ccc2nnn(-c3ccc4cn[nH]c4c3)c12 [Example 130]
6,> 1000,N#Cc1ccc(Cn2nccc2-c2cc(F)c3cnn(-c4ccc5cn[nH]c5c4)c3c2)nc1 [Example 131]
7,> 1000,O=C(O)c1cccc(-n2nnc3c(F)cc(-c4ccnn4Cc4ccc(Cl)cc4Cl)cc32)c1 [Example 132]
8,100 to 1000,Clc1ccc(Cn2nccc2-c2cnc3nnn(-c4ccc5cn[nH]c5c4)c3c2)c(Cl)c1 [Example 134]
9,100 to 1000,Nc1cc(-n2nnc3c(Cl)cc(-c4ccnn4Cc4ccc(Cl)cc4Cl)cc32)ccn1 [Example 139]
10,100 to 1000,N#Cc1ccc(Cn2nccc2-c2cc3c(cn2)nnn3-c2ccc3cn[nH]c3c2)cc1 [Example 140]
11,< 100,Clc1ccc(Cn2nccc2-c2cc3c(cn2)nnn3-c2ccc3cn[nH]c3c2)c(Cl)c1 [Example 142]
12,< 100,N#Cc1ccc(Cn2nccc2-c2cc(F)c3nnn(-c4cc5[nH]ncc5cc4F)c3c2)cc1 [Example 144]
13,< 100,N#Cc1ccc(Cn2nccc2-c2cc3c(cc2Cl)nnn3-c2ccc3cn[nH]c3c2)cc1 [Example 150]
14,100 to 1000,N#Cc1ccc(Cn2nccc2-c2cc3c(cc2Cl)nnn3-c2ccc3cn[nH]c3c2)cc1 [Example 151]
15,100 to 1000,N#Cc1ccc(Cn2nccc2-c2cc3c(cn2)nnn3-c2ccc3[nH]c(=O)[nH]c3c2)cc1 [Example 154]
16,100 to 1000,N#Cc1ccc(Cn2nccc2-c2ccc3nnn(-c4ccc5[nH]c(=O)[nH]c5c4)c3c2)cc1 [Example 157]
17,100 to 1000,O=c1[nH]c2ccc(-n3nnc4ncc(-c5ccnn5Cc5ccc(Cl)cc5Cl)cc43)cc2[nH]1 [Example 158]
18,100 to 1000,Clc1ccc(Cn2nccc2-c2cnc3cnn(-c4ccc5cn[nH]c5c4)c3c2)c(Cl)c1 [Example 163]
19,100 to 1000,Clc1ccc(Cn2nccc2-c2cnc3cnn(-c4ccc5cn[nH]c5c4)c3c2)nc1 [Example 164]
20,100 to 1000,O=c1[nH]c2ccc(-n3nnc4cnc(-c5ccnn5Cc5ccc(Cl)cn5)cc43)cc2[nH]1 [Example 165]
21,100 to 1000,Cc1nc(-c2ccnn2Cc2ccc(C#N)cc2)cc2c1nnn2-c1ccc2cn[nH]c2c1 [Example 169]
22,100 to 1000,O=c1[nH]c2ccc(-n3nnc4c(F)cc(-c5ccnn5Cc5ccc(Cl)cc5Cl)cc43)cc2[nH]1 [Example 170]
23,100 to 1000,O=c1[nH]c2ccc(-n3nnc4c(F)cc(-c5ccnn5Cc5ccc(Cl)cn5)cc43)cc2[nH]1 [Example 171]
24,100 to 1000,O=c1[nH]c2ccc(-n3nnc4c(F)cc(-c5ccnn5Cc5ccc(F)cn5)cc43)cc2[nH]1 [Example 173]
25,100 to 1000,N#Cc1ccc(Cn2nccc2-c2cc(F)c3nnn(-c4ccc5[nH]c(=O)[nH]c5c4)c3c2)nc1 [Example 176]
26,100 to 1000,N#Cc1ccc(Cn2nccc2-c2cc3c(cn2)nnn3-c2ccc3[nH]c(=O)[nH]c3c2)nc1 [Example 178]
27,100 to 1000,O=c1[nH]c2ccc(-n3nnc4c(Cl)cc(-c5ccnn5Cc5ccc(Cl)cc5Cl)cc43)cc2[nH]1 [Example 186]
